Here are results for 16 compounds from patent US7737141B2, “Prodrug of cinnamide compound” (Eisai R&D Management Co., Ltd., priority 2006, dated 2010).

Read-outs that look alike come from different tables or passages of the source. Some results are limits rather than exact numbers.

A short description of this data set: Solubility test: apparent solubility in test solutions, HPLC-UV. It counts as physicochemical. Particulars: for solubility: aqueous buffer, thermodynamic from solid. The method, then: Several milligram of each compound to be tested was precisely weighed, and 0.1 to 1.3 mL of the following test solutions were each added to the compound. The resulting mixture was stirred for several tens of seconds to several minutes for dispersing or dissolving the compound. Then, the supernatant was collected by centrifugation or filtration through a membrane. The concentration of the compound in the supernatant was quantitatively measured by an HPLC-UV method as an apparent solubility of the compound to each test solution.
pH 5: Diluted Mcllvaine buffer solution (KANTO Chemical Co. Inc.)
pH 7: GIBCO™ Dulbecco's phosphate-buffered saline (Invitrogen Corporation)

Where [1] appears, read: pH 7: Dulbecco's phosphate-buffered saline, read-out: Solubility at pH 7.
Setting [2] is: diluted McIlvaine buffer solution, pH 5: Diluted Mcllvaine buffer solution, read-out: Solubility at pH 5.

For orientation: solubility means the concentration that dissolves in the medium under given conditions. Turning to `COc1cc(/C=C2\CC[C@@H]3CCC[C@@H](c4cc(F)c(F)c(F)c4)N3C2=O)ccc1-n1cc(C)[n+](COP(=O)(O)O)c1.O=C([O-])C(F)(F)F` [Example 10, 3-{2-methoxy-4-[(6S,9aS)-4-oxo-6-(3,4,5-trifluorophenyl)hexahydroquinolizin-(3E)-ylidenemethyl]phenyl}-5-methyl-1-(phosphonooxymethyl)-3H-imidazol-1-ium trifluoroacetate], the solubility was 9760 µg/mL under setting [1] and 9590 µg/mL under setting [2].

As to `COc1cc(/C=C2\O[C@@H](C)[C@H]3COC[C@@H](c4ccc(Cl)cc4)N3C2=O)ccc1-n1cc(C)[n+](COP(=O)(O)O)c1.O=C([O-])C(F)(F)F` [Example 15, 3-{4-[(1S,6R,9aR)-6-(4-chlorophenyl)-1-methyl-4-oxotetrahydro[1,4]oxazino[3,4-c][1,4]oxazine-(3Z)-ylidenemethyl]-2-methoxyphenyl}-5-methyl-1-phosphonooxymethyl-3H-imidazole-1-ium trifluoroacetate], the solubility is, setting by setting: under setting [1], more than 10000 µg/mL; under setting [2], more than 10000 µg/mL.

Turning to `COc1cc(/C=C2\O[C@@H](C)[C@H]3COC[C@@H](c4cc(F)c(F)c(F)c4)N3C2=O)ccc1-n1cc(C)[n+](COP(=O)(O)O)c1.O=C([O-])C(F)(F)F` [Example 14, 3-{2-methoxy-4-[(1S,6R,9aR)-1-methyl-4-oxo-6-(3,4,5-trifluorophenyl)tetrahydro-[1,4]oxazino[3,4-c][1,4]oxazine-(3Z)-ylidenemethyl]phenyl}-5-methyl-1-phosphonooxymethyl-3H-imidazole-1-ium trifluoroacetate], the solubility is, setting by setting: under setting [1], more than 10000 µg/mL; under setting [2], more than 10000 µg/mL.

For the compound `COc1cc(/C=C2\CC[C@H]3CC[C@@H](c4cc(F)c(F)c(F)c4)N3C2=O)ccc1-n1cc(C)[n+](COP(=O)(O)O)c1.O=C([O-])C(F)(F)F` [Example 6, 3-{2-methoxy-4-[(3S,8aS)-5-oxo-3-(3,4,5-trifluorophenyl)hexahydroindolizin-(6E)-ylidenemethyl]phenyl}-5-methyl-1-phosphonooxymethyl-3H-imidazol-1-ium trifluoroacetate], the solubility runs as follows: under setting [1], 8890 µg/mL; under setting [2], 9140 µg/mL.

Consider `COc1cc(/C=C2\OC(C)(C)[C@H]3COC[C@@H](c4cc(F)c(F)c(F)c4)N3C2=O)ccc1-n1cc(C)[n+](COP(=O)(O)O)c1.O=C([O-])C(F)(F)F` [Example 18, 3-{4-[(6R,9aR)-1,1-dimethyl-4-oxo-6-(3,4,5-trifluorophenyl)tetrahydro[1,4]oxazino[3,4-c][1,4]oxazine-(3Z)-ylidenemethyl]-2-methoxyphenyl}-5-methyl-1-phosphonooxymethyl-3H-imidazole-1-ium trifluoroacetate], for which the solubility was more than 10000 µg/mL under setting [1] and more than 10000 µg/mL under setting [2].

In the case of `COc1cc(/C=C2\CC[C@H]3COC[C@@H](c4cc(F)c(F)c(F)c4)N3C2=O)ccc1-n1cc(C)[n+](COP(=O)(O)O)c1.O=C([O-])C(F)(F)F` [Example 11, 3-{2-methoxy-4-[(4R,9aS)-6-oxo-4-(3,4,5-trifluorophenyl)hexahydropyrido[2,1-c][1,4]oxazin-(7E)-ylidenemethyl]phenyl}-5-methyl-1-phosphonooxymethyl-3H-imidazol-1-ium trifluoroacetate], the solubility is, setting by setting: under setting [1], 8110 µg/mL; under setting [2], 7680 µg/mL.

With `COc1cc(/C=C2\CCCN([C@H](c3cc(F)c(F)c(F)c3)[C@@H](C)O)C2=O)ccc1-n1cc(C)[n+](COP(=O)(O)O)c1.O=C([O-])C(F)(F)F` [Example 4, 3-{4-{1-[(1R,2R)-2-hydroxy-1-(3,4,5-trifluorophenyl)propyl]-2-oxopiperidin-(3E)-ylidenemethyl}-2-methoxyphenyl}-5-methyl-1-(phosphonooxymethyl)-3H-imidazol-1-ium trifluoroacetate], the solubility is more than 10000 µg/mL under setting [1] and more than 10000 µg/mL under setting [2].

On to `COc1cc(/C=C2\CC[C@H]3CCC[C@@H](c4ccc(Cl)cc4)N3C2=O)ccc1-n1cc(C)[n+](COP(=O)(O)O)c1.O=C([O-])C(F)(F)F` [Example 13, 3-{4-[(6S,9aR)-6-(4-chlorophenyl)-4-oxohexahydroquinolizin-(3E)-ylidenemethyl]-2-methoxyphenyl}-5-methyl-1-phosphonooxymethyl-3H-imidazol-1-ium trifluoroacetate], for which the solubility under setting [1] was determined as 9150 µg/mL and the solubility under setting [2] turned out to be 9330 µg/mL.

For `COc1cc(/C=C2\O[C@@H](C)CN([C@H](c3cc(F)c(F)c(F)c3)[C@@H](C)O)C2=O)ccc1-n1cc(C)[n+](COP(=O)(O)O)c1.O=C([O-])C(F)(F)F` [Example 12, 3-{4-{(S)-4-[(1R,2R)-2-hydroxy-1-(3,4,5-trifluorophenyl)propyl]-6-methyl-3-oxomorpholin-(2Z)-ylidenemethyl}-2-methoxyphenyl}-5-methyl-1-(phosphonooxymethyl)-3H-imidazol-1-ium trifluoroacetate], the solubility reads like this: under setting [1], 1830 µg/mL; under setting [2], 3440 µg/mL.

Consider `COc1cc(/C=C2\CCCN([C@@H](C)c3ccc(F)cc3)C2=O)ccc1-n1cc(C)[n+](COC(C)=O)c1.[I-]` [Example 3, 1-acetoxymethyl-3-[4-{1-[(S)-1-(4-fluorophenyl)ethyl]-2-oxopiperidin-(3E)-ylidenemethyl]-2-methoxyphenyl}-5-methyl-3H-imidazol-1-ium iodide], for which the solubility was determined as 1120 µg/mL under setting [1] and 1240 µg/mL under setting [2].

The Solubility is how much of the substance goes into solution per volume. For “1-{4-{(E)-1-{[(S)-1-(4-fluorophenyl)ethyl]-2-oxopiperidin-3-ylidene}methyl}-2-methoxyphenyl}-4-methyl-1H-imidazol-3-iomethyl monohydrogenphosphate [Example 2]”, the “Solubility at pH 5” value (pH 5: Diluted Mcllvaine buffer solution) was more than 10 mg/mL. Besides, the “Solubility at pH 7” value (pH 7: Dulbecco's phosphate-buffered saline) is more than 10 mg/mL.

As to `COc1cc(/C=C2\O[C@@H](C)[C@H]3CC[C@@H](c4cc(F)c(F)c(F)c4)N3C2=O)ccc1-n1cc(C)[n+](COP(=O)(O)O)c1.O=C([O-])C(F)(F)F` [Example 16, 3-{2-methoxy-4-[(1S,6S,8aR)-1-methyl-4-oxo-6-(3,4,5-trifluorophenyl)tetrahydropyrrolo[2,1-c][1,4]oxazine-(3Z)-ylidenemethyl]phenyl}-5-methyl-1-phosphonooxymethyl-3H-imidazole-1-ium trifluoroacetate], the solubility was 1120 µg/mL under setting [1] and 1150 µg/mL under setting [2].

As to `Cc1cn(-c2ccc(/C=C3\O[C@@H](C)CN([C@H](c4ccc(F)c(F)c4)[C@@H](C)O)C3=O)cc2F)c[n+]1COP(=O)(O)O.O=C([O-])C(F)(F)F` [Example 9, 3-{4-{(S)-4-[(1R,2R)-1-(3,4-difluorophenyl)-2-hydroxypropyl]-6-methyl-3-oxomorpholin-(2Z)-ylidenemethyl}-2-fluorophenyl}-5-methyl-1-phosphonooxymethyl-3H-imidazol-1-ium trifluoroacetate], the solubility reads like this: under setting [1], 4720 µg/mL; under setting [2], 3450 µg/mL.

Regarding `COc1cc(/C=C2\O[C@@H](C)[C@H]3COC[C@@H](c4ccc(F)c(F)c4)N3C2=O)ccc1-n1cc(C)[n+](COP(=O)(O)O)c1.O=C([O-])C(F)(F)F` [Example 17, 3-{4-[(1S,6R,9aR)-6-(3,4-difluorophenyl)-1-methyl-4-oxotetrahydro[1,4]oxazino[3,4-c][1,4]oxazine-(3Z)-ylidenemethyl]-2-methoxyphenyl}-5-methyl-1-phosphonooxymethyl-3H-imidazole-1-ium trifluoroacetate], the solubility is, setting by setting: under setting [1], 7550 µg/mL; under setting [2], more than 10000 µg/mL.

Turning to `COc1cc(/C=C2\CC[C@H]3CC[C@@H](c4ccc(Cl)cc4)N3C2=O)ccc1-n1cc(C)[n+](COP(=O)(O)O)c1.O=C([O-])C(F)(F)F` [Example 8, 3-{4-[(3S,8aS)-3-(4-chlorophenyl)-5-oxohexahydroindolizin-(6E)-ylidenemethyl]-2-methoxyphenyl}-5-methyl-1-(phosphonooxymethyl)-3H-imidazol-1-ium trifluoroacetate], the solubility by setting is: under setting [1], 1690 µg/mL; under setting [2], 960 µg/mL.

Consider `Cc1cn(-c2ccc(/C=C3\O[C@@H](C)CN([C@H](c4cc(F)c(F)c(F)c4)[C@@H](C)O)C3=O)cc2F)c[n+]1COP(=O)(O)O.O=C([O-])C(F)(F)F` [Example 5, 3-[2-fluoro-4-[(S)-4-[(1R,2R)-2-hydroxy-1-(3,4,5-trifluorophenyl)propyl]-6-methyl-3-oxomorpholin-(2Z)-ylidenemethyl]phenyl]-5-methyl-1-phosphonooxymethyl-3H-imidazol-1-ium trifluoroacetate], for which the solubility under setting [1] is 460 µg/mL and the solubility under setting [2] was determined as 320 µg/mL.
